# According to ChEMBL document CHEMBL3808374, “Discovery of 3-Substituted 1H-Indole-2-carboxylic Acid Derivatives as a Novel Class of CysLT1 Selective Antagonists” (ACS Med Chem Lett, 2016):
# Calls of active or inactive are those of the source. The rule behind the calls is not given here.
# How the values were obtained:
# [1] = biological target: T1, Cysteinyl leukotriene receptor 1 (Homo sapiens, UniProt Q9Y271); experiment: Antagonist activity against CysLT1 receptor (unknown origin) expressed in HEK293 cells assessed as inhibition of LTD4-induced calcium mobilization pre-incubated for 10 mins before LTD4 addition by Fluo-4 AM dye based fluorimetric assay; type: functional, cell-based
# T1 sequence (Q9Y271 whole entry): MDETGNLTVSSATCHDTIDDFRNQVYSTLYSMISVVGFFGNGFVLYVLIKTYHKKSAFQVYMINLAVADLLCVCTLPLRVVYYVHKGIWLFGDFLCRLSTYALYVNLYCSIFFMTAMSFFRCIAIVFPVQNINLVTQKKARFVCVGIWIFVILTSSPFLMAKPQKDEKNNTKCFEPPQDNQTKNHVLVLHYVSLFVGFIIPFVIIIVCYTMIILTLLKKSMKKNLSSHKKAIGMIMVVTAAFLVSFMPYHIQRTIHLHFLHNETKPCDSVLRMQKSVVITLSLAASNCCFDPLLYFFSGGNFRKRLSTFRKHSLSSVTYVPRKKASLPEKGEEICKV
# [2] = biological target: T2, Cysteinyl leukotriene receptor 2 (Homo sapiens, UniProt Q9NS75); experiment: Antagonist activity against CysLT2 receptor (unknown origin) expressed in HEK293 cells assessed as inhibition of LTD4-induced calcium mobilization pre-incubated for 10 mins before LTD4 addition by Fluo-4 AM dye based fluorimetric assay; type: functional, cell-based
# T2 sequence (Q9NS75 whole entry): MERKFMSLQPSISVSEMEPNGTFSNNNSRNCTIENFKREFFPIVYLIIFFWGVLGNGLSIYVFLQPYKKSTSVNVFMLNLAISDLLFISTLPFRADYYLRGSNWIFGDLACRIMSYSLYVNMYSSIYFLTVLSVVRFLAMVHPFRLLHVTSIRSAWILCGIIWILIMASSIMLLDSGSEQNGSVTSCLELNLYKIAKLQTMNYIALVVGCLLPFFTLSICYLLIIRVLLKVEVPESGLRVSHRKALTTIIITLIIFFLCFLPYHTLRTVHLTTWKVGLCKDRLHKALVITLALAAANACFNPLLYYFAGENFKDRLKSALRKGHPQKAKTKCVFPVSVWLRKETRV
# [3] = biological target: T3, Cysteinyl leukotriene receptor 1 (Mus musculus) (UniProt Q99JA4); experiment: (§1) Antagonist activity at LTD4 receptor in splenocytes isolated from MOG(35 to 55 residues) containing CFA immunized and pertussis toxin-induced C57BL/6 mouse experimental autoimmune encephalomyelitis model assessed as inhibition of LTD4-induced leukocyte chemotaxis at 100 nM after 1.5 hrs by flow cytometric analysis; type: cell-based
# T3 sequence (whole entry): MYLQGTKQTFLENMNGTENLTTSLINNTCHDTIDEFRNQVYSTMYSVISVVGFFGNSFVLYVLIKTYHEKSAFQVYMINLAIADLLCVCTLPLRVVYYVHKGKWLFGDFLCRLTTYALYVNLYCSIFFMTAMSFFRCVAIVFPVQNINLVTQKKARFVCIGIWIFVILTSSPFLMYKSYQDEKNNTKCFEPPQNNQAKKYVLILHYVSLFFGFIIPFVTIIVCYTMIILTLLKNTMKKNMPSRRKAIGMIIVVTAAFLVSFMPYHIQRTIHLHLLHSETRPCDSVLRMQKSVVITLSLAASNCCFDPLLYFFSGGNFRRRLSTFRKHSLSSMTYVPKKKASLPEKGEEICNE
# [4] = biological target: T3, Cysteinyl leukotriene receptor 1 (Mus musculus); experiment: as §1, with “10” for “100”; type: cell-based
# [5] = biological target: T3, Cysteinyl leukotriene receptor 1 (Mus musculus); details: C57BL/6, at 1 µM
SMILES,IC50 [1] [µM],IC50 [2] [µM],inhibition [3] [%],inhibition [4],inhibition [5] [%]
O=C(CCc1c(C(=O)O)[nH]c2ccccc12)Nc1cccc(/C=C/c2ccc3ccc(Cl)cc3n2)c1,0.058,50,,,
O=C(/C=C/c1c(C(=O)O)[nH]c2c(Cl)cccc12)Nc1cccc(/C=C/c2ccc3ccc(Cl)cc3n2)c1,0.016,> 100,,,
O=C(/C=C/c1c(C(=O)O)[nH]c2ccc(F)cc12)Nc1cccc(/C=C/c2ccc3ccc(Cl)cc3n2)c1,0.0078,46,> 50,Active,
N#CCCCCOC(=O)/C=C/c1c(C(=O)O)[nH]c2cc(Cl)cc(Cl)c12,> 100,> 100,,,
CCCCCOC(=O)/C=C/c1c(C(=O)O)[nH]c2cc(Cl)cc(Cl)c12,> 100,> 100,,,
O=C(/C=C/c1c(C(=O)O)[nH]c2cc(Cl)cc(Cl)c12)OC1CCCCC1,> 100,> 100,,,
O=C(/C=C/c1c(C(=O)O)[nH]c2cc(Cl)ccc12)Nc1cccc(/C=C/c2ccc3ccc(Cl)cc3n2)c1,0.022,87,,,
O=C(O)c1ccc(OCCCc2ccc(OCCCCOc3ccccc3)cc2)c(C(=O)NC2CCCC(C(=O)O)C2)c1 (stereo unspecified),> 2.5,,,,
O=C(/C=C/c1c(C(=O)O)[nH]c2ccccc12)Nc1cccc(/C=C/c2ccc3ccc(Cl)cc3n2)c1,0.009,58,> 50,,
CC(C)CCCOC(=O)/C=C/c1c(C(=O)O)[nH]c2cc(Cl)cc(Cl)c12,> 100,> 100,,,
O=C(/C=C/c1c(C(=O)O)[nH]c2cc(Cl)cc(Cl)c12)OCCCCc1ccccc1,> 100,> 100,,,
O=C(/C=C/c1c(C(=O)O)[nH]c2cc(Cl)cc(Cl)c12)Oc1ccccc1,> 100,> 100,,,
O=C(/C=C/c1c(C(=O)O)[nH]c2ccccc12)OCc1cccc(/C=C/c2ccc3ccc(Cl)cc3n2)c1,0.12,> 100,,,
COc1ccc2c(/C=C/C(=O)Nc3cccc(/C=C/c4ccc5ccc(Cl)cc5n4)c3)c(C(=O)O)[nH]c2c1,0.012,> 100,> 50,,
O=C(O)c1[nH]c2ccccc2c1C(=O)Nc1cccc(/C=C/c2ccc3ccc(Cl)cc3n2)c1,0.035,23,,,
O=C(/C=C/c1c(C(=O)O)[nH]c2cc(Cl)cc(Cl)c12)OCC1CCCCC1,> 100,> 100,,,
CC(C)(O)c1ccccc1CC[C@@H](SCC1(CC(=O)O)CC1)c1cccc(/C=C/c2ccc3ccc(Cl)cc3n2)c1,,,,,50
O=C(/C=C/c1c(C(=O)O)[nH]c2cc(Cl)cc(Cl)c12)OCCCc1ccccc1,> 100,> 100,,,
O=C(/C=C/c1c(C(=O)O)[nH]c2cc(Cl)cc(Cl)c12)OCc1ccccc1,> 100,> 100,,,
O=C(/C=C/c1c(C(=O)O)[nH]c2cc(F)cc(F)c12)Nc1cccc(/C=C/c2ccc3ccc(Cl)cc3n2)c1,0.038,76,,,
COc1cccc2c(/C=C/C(=O)Nc3cccc(/C=C/c4ccc5ccc(Cl)cc5n4)c3)c(C(=O)O)[nH]c12,0.0059,15,> 50,Active,
O=C(/C=C/c1c(C(=O)O)[nH]c2cc(Cl)cc(Cl)c12)OCCc1ccccc1,> 100,> 100,,,
O=C(/C=C/c1c(C(=O)O)[nH]c2cc(Cl)cc(Cl)c12)OCc1cccc(/C=C/c2ccc3ccc(Cl)cc3n2)c1,0.66,> 100,,,50
O=C(/C=C/c1c(C(=O)O)[nH]c2ccc(Cl)cc12)Nc1cccc(/C=C/c2ccc3ccc(Cl)cc3n2)c1,0.017,> 100,,,
COc1ccc2[nH]c(C(=O)O)c(/C=C/C(=O)Nc3cccc(/C=C/c4ccc5ccc(Cl)cc5n4)c3)c2c1,0.025,46,,,
O=C(/C=C/c1c[nH]c2cc(Cl)cc(Cl)c12)OCc1cccc(/C=C/c2ccc3ccc(Cl)cc3n2)c1,31,> 100,,,
O=C(/C=C/c1c(C(=O)O)[nH]c2cc(Cl)cc(Cl)c12)Nc1cccc(/C=C/c2ccc3ccc(Cl)cc3n2)c1,0.29,> 100,,,
O=C(/C=C/c1c(C(=O)O)[nH]c2cccc(Cl)c12)Nc1cccc(/C=C/c2ccc3ccc(Cl)cc3n2)c1,0.067,36,,,
